# Data from patent publication US11919900B1 (priority 2023, dated 2024).
# Key:
# [1] = system: extensively drug resistant (XDR) strains of Mycobacterium tuberculosis; assay: microbe, parasite or virus in culture; format: cell-based; conditions: 192 h, read-out: Antitubercular activity against Mycobacterium tuberculosis XDR (MIC)
# [2] = system: multidrug-resistant (MDR) strains of Mycobacterium tuberculosis; assay: microbe, parasite or virus in culture; format: cell-based; conditions: for MIC: Mycobacterium tuberculosis, 192 h, read-out: Antitubercular activity against Mycobacterium tuberculosis MDR (MIC)
Molecule,MIC [1] [µg/mL],MIC [2] [µg/mL],"Antitubercular activity against Mycobacterium tuberculosis MDR (MIC) ([2]; MDR-TB, drug resistance at least to isoniazid and rifampicin, REMA, 8 days at 37° C. then resazurin overnight) [µg/mL]"
"COC(=O)c1c(C(=O)OC)c2c(Br)cc3ccccc3n2c1C(=O)c1ccc(OC)cc1 [QUIN-KNV1, Dimethyl 4-bromo-1-(4-methoxybenzoyl)pyrrolo[1,2-a]quinoline-2,3-dicarboxylate]",2,2,
"CCOC(=O)c1cc(C(=O)c2ccc(OC)cc2)n2c1c(Br)cc1ccccc12 [QUIN-KNV2, Ethyl 4-bromo-1-(4-methoxybenzoyl)pyrrolo[1,2-a]quinoline-3-carboxylate]",4,4,
"COC(=O)c1c(C(=O)OC)c2c(Br)cc3ccccc3n2c1C(=O)c1ccc(Cl)cc1 [QUIN-KNV3, Dimethyl 4-bromo-1-(4-chlorobenzoyl)pyrrolo[1,2-a]quinoline-2,3-dicarboxylate]",4,4,
"CCOC(=O)c1cc(C(=O)c2ccc(Cl)cc2)n2c1c(Br)cc1ccccc12 [QUIN-KNV4, Ethyl 4-bromo-1-(4-chlorobenzoyl)pyrrolo[1,2-a]quinoline-3-carboxylate]",,8,
"COC(=O)c1c(C(=O)OC)c2c(Br)cc3ccccc3n2c1C(=O)c1ccc(Br)cc1 [QUIN-KNV5, Dimethyl 4-bromo-1-(4-bromobenzoyl)pyrrolo[1,2-a]quinoline-2,3-dicarboxylate]",2,1,
"CCOC(=O)c1cc(C(=O)c2ccc(Br)cc2)n2c1c(Br)cc1ccccc12 [QUIN-KNV6, Ethyl 4-bromo-1-(4-bromobenzoyl)pyrrolo[1,2-a]quinoline-3-carboxylate]",4,4,
"COC(=O)c1c(C(=O)OC)c2c(Br)cc3ccccc3n2c1C(=O)c1ccc(F)cc1 [QUIN-KNV7, Dimethyl 4-bromo-1-(4-fluorobenzoyl)pyrrolo[1,2-a]quinoline-2,3-dicarboxylate]",,16,
"CCOC(=O)c1cc(C(=O)c2ccc(F)cc2)n2c1c(Br)cc1ccccc12 [QUIN-KNV8, Ethyl 4-bromo-1-(4-fluorobenzoyl)pyrrolo[1,2-a]quinoline-3-carboxylate]",4,4,
"COC(=O)c1c(C(=O)OC)c2c(Br)cc3ccccc3n2c1C(=O)c1ccc(C#N)cc1 [QUIN-KNV9, Dimethyl 4-bromo-1-(4-cyanobenzoyl)pyrrolo[1,2-a]quinoline-2,3-dicarboxylate]",16,8,
"CCOC(=O)c1cc(C(=O)c2ccc(C#N)cc2)n2c1c(Br)cc1ccccc12 [QUIN-KNV10, Ethyl 4-bromo-1-(4-cyanobenzoyl)pyrrolo[1,2-a]quinoline-3-carboxylate]",,16,
"COC(=O)c1c(C(=O)OC)c2c(Br)cc3ccccc3n2c1C(=O)c1ccccc1 [QUIN-KNV11, Dimethyl 1-benzoyl-4-bromopyrrolo[1,2-a]quinoline-2,3-dicarboxylate]",,16,
"Ethyl 4-bromo-1-(2-nitrobenzoyl)pyrrolo[1,2-a]quinoline-3-carboxylate [QUIN-KNV12]",,,8
